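The compound was tested at five concentrations on cells cultured in 96-well plates, with a 48-hour exposure period. Abbreviation: GI50, concentration required for 50% inhibition of growth.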 Activity calls are given as the source filed them. Rule as the data show it: active = GI50 up to about 1.1 µM and inactive = higher.
Assays:
Assay in all cases: NCI-60 cell line screen, 48 h
Malme-3M = test system: Malme-3M
RXF 393 = test system: RXF 393
SK-MEL-2 = test system: SK-MEL-2
LOX IMVI = test system: LOX IMVI
RPMI-8226 = test system: RPMI-8226
SNB-75 = test system: SNB-75
SK-MEL-28 = test system: SK-MEL-28
SK-MEL-5 = test system: SK-MEL-5
A498 = test system: A498
NCI-H226 = test system: NCI-H226
COLO 205 = test system: COLO 205
IGROV-1 = test system: IGROV-1
A549 = test system: A549
SF-295 = test system: SF-295
DMS-273 = test system: DMS-273

Measured: GI50

O=c1c2ccccc2c(=O)n2n1CC=CC2
inactive: Malme-3M > 100 µM | RXF 393 > 100 µM | SK-MEL-2 > 100 µM | LOX IMVI > 100 µM | RPMI-8226 > 100 µM | SNB-75 > 100 µM | SK-MEL-28 > 100 µM | SK-MEL-5 > 100 µM | A498 > 100 µM | NCI-H226 > 100 µM | COLO 205 > 100 µM | IGROV-1 > 100 µM | A549 > 100 µM | SF-295 > 100 µM | DMS-273 > 100 µM

COc1c(-c2ccccc2)nc2ccc(Oc3ccccc3)nn12
inactive: Malme-3M 37.8 µM | RXF 393 > 38.8 µM | SK-MEL-2 > 54 µM | LOX IMVI > 72.9 µM | RPMI-8226 7.6 µM | SNB-75 > 57.5 µM | SK-MEL-28 > 51.8 µM | SK-MEL-5 33.2 µM | A498 > 41.4 µM | NCI-H226 29.7 µM | COLO 205 > 44.7 µM | IGROV-1 > 93.8 µM | A549 > 57.5 µM | SF-295 > 62.8 µM | DMS-273 > 57.1 µM

O=[N+]([O-])c1ccc2occ3c2c1CCC3
inactive: Malme-3M > 100 µM | RXF 393 > 100 µM | SK-MEL-2 > 100 µM | LOX IMVI > 100 µM | RPMI-8226 > 100 µM | SNB-75 24.4 µM | SK-MEL-28 > 100 µM | SK-MEL-5 > 100 µM | A498 > 100 µM | NCI-H226 40 µM | COLO 205 > 100 µM | IGROV-1 > 100 µM | A549 > 100 µM | SF-295 > 100 µM | DMS-273 > 100 µM

CCOC(=N)CC(=O)Nc1ccccc1
inactive: Malme-3M > 46.5 µM | RXF 393 > 46.5 µM | SK-MEL-2 > 31.6 µM | LOX IMVI 47.5 µM | RPMI-8226 15.9 µM | SNB-75 > 46.5 µM | SK-MEL-28 > 46.5 µM | SK-MEL-5 > 46.5 µM | A498 > 46.5 µM | NCI-H226 > 31.6 µM | COLO 205 > 46.5 µM | IGROV-1 > 46.5 µM | A549 > 46.5 µM | SF-295 > 100 µM | DMS-273 > 46.5 µM

COc1cc(/C=C/c2cccnc2)cc(OC)c1OC
inactive: Malme-3M > 100 µM | RXF 393 > 100 µM | LOX IMVI > 100 µM | RPMI-8226 > 100 µM | SNB-75 45.7 µM | SK-MEL-28 > 100 µM | SK-MEL-5 47.5 µM | A498 > 100 µM | NCI-H226 > 100 µM | COLO 205 > 100 µM | IGROV-1 > 100 µM | A549 > 100 µM | SF-295 > 100 µM | DMS-273 > 100 µM

C1CCN(c2nc(=[N+]3CCCCC3)ss2)CC1
inactive: Malme-3M > 100 µM | RXF 393 > 100 µM | SK-MEL-2 > 100 µM | LOX IMVI 41.1 µM | RPMI-8226 > 100 µM | SNB-75 > 100 µM | SK-MEL-28 84.9 µM | SK-MEL-5 > 100 µM | A498 > 100 µM | NCI-H226 19.1 µM | IGROV-1 > 100 µM | A549 55.8 µM | SF-295 > 100 µM | DMS-273 > 100 µM

Clc1cccc(C2SCc3nc4ccccc4n32)c1Cl (centres undefined)
inactive: RXF 393 15.6 µM | SK-MEL-2 16.7 µM | RPMI-8226 13.3 µM | SNB-75 4.51 µM | SK-MEL-28 21.1 µM | SK-MEL-5 14.1 µM | A498 15.2 µM | COLO 205 19.8 µM | IGROV-1 16.6 µM | A549 17.9 µM | SF-295 16.5 µM | DMS-273 15.9 µM

CCCCCCC(C)CCCCCCCCCCC(=O)O (centres undefined)
inactive: Malme-3M > 100 µM | RXF 393 > 100 µM | SK-MEL-2 > 100 µM | LOX IMVI > 100 µM | RPMI-8226 > 100 µM | SNB-75 > 100 µM | SK-MEL-28 > 100 µM | SK-MEL-5 > 100 µM | A498 > 100 µM | NCI-H226 > 100 µM | COLO 205 > 100 µM | IGROV-1 > 100 µM | A549 > 100 µM | SF-295 > 100 µM | DMS-273 > 100 µM

Cc1ccccc1NC(=O)CC1C(=O)Nc2ccccc2[S+]1[O-] (centres undefined)
inactive: Malme-3M > 100 µM | RXF 393 26.6 µM | SK-MEL-2 > 100 µM | LOX IMVI > 100 µM | RPMI-8226 > 100 µM | SNB-75 25.6 µM | SK-MEL-28 > 100 µM | SK-MEL-5 > 100 µM | A498 > 100 µM | NCI-H226 > 100 µM | IGROV-1 88.1 µM | A549 > 100 µM | SF-295 > 100 µM | DMS-273 > 100 µM

O=C1CCNC(=O)NC1
inactive: Malme-3M > 100 µM | RXF 393 > 100 µM | SK-MEL-2 > 100 µM | LOX IMVI > 100 µM | RPMI-8226 > 100 µM | SNB-75 > 100 µM | SK-MEL-28 > 100 µM | SK-MEL-5 > 100 µM | A498 > 100 µM | NCI-H226 > 100 µM | COLO 205 > 100 µM | IGROV-1 > 100 µM | A549 > 100 µM | SF-295 > 100 µM | DMS-273 > 100 µM

O=C(Cc1nc2ccccc2s1)C(=O)Nc1ccccc1C(F)(F)F
inactive: Malme-3M > 100 µM | RXF 393 > 100 µM | SK-MEL-2 > 100 µM | LOX IMVI > 100 µM | SNB-75 25.1 µM | SK-MEL-28 > 100 µM | SK-MEL-5 > 100 µM | A498 > 100 µM | NCI-H226 > 100 µM | COLO 205 > 100 µM | IGROV-1 > 100 µM | A549 > 100 µM | SF-295 > 100 µM | DMS-273 > 100 µM

COC1(OC)CC2OC1C1N=NN(C(=O)OC(C)(C)C)C21 (centres undefined)
inactive: Malme-3M > 100 µM | RXF 393 > 100 µM | SK-MEL-2 > 100 µM | LOX IMVI > 100 µM | RPMI-8226 52.7 µM | SNB-75 > 100 µM | SK-MEL-28 > 100 µM | SK-MEL-5 > 100 µM | A498 > 100 µM | NCI-H226 > 100 µM | COLO 205 > 100 µM | IGROV-1 > 100 µM | A549 > 100 µM | SF-295 > 100 µM | DMS-273 > 100 µM

Clc1ccc(C2N3CCCCC3[C@@H]3c4[nH]c5ccccc5c4CCN23)cc1 (some centres undefined)
inactive: Malme-3M 19.7 µM | RXF 393 35.2 µM | SK-MEL-2 34 µM | RPMI-8226 90.2 µM | SNB-75 80.5 µM | SK-MEL-28 > 100 µM | SK-MEL-5 59 µM | A498 94.4 µM | IGROV-1 > 100 µM | A549 79.6 µM | SF-295 67.1 µM | DMS-273 42.2 µM

NNC(=S)N/N=C(\CC1OC(=O)c2ccccc21)c1ccccc1O (centres undefined)
inactive: Malme-3M 30.4 µM | RXF 393 36.4 µM | SK-MEL-2 26.8 µM | LOX IMVI 17.6 µM | SNB-75 42.6 µM | SK-MEL-28 57.1 µM | SK-MEL-5 42.3 µM | A498 33.7 µM | NCI-H226 33.6 µM | COLO 205 47 µM | IGROV-1 38 µM | A549 64.3 µM | SF-295 20.3 µM | DMS-273 50.9 µM

From ChEMBL document CHEMBL1201862, “PubChem BioAssay data set” (2004)
